Source: patent publication US11369618B2, “Compounds, compositions and methods for prevention and/or treatment of cancer” (THE TRUSTEES OF THE UNIVERSITY OF PENNSYLVANIA, priority 2016, dated 2022)

Experiments:
[1] = test system: c-Myc and pRB in syngeneic pancreatic ductal adenocarcinoma (PDAC) cell lines; test: Western blot of PDAC cell lines treated with G-1; conditions: 500 nM, 1 hour
Description: FIG. 17A: Western blot of c-Myc in several PDAC cell lines treated with 500 nM G-1 for 1 hour.
Using a newly available set of syngeneic pancreatic ductal adenocarcinoma (PDAC) cell lines, the effects of GPER activation on the levels of c-Myc protein were examined.

[2] = test system: Melanoma cells engineered to maintain c-Myc protein; test: c-Myc-transduced WM46 melanoma cells treated with G-1; type: cell-based, human; conditions: c-Myc-transduced WM46, 16 hours
Description: FIG. 12 illustrates the finding that GPER signaling results in loss of c-Myc in melanoma. Panels A-C: Western blots of heMel (Panel A), WM46 (Panel B), and B16F10 (Panel C) melanoma transiently treated with E2 for 3 days, followed by 4 day withdraw. Panel D: Western blot of WM46 cells treated with a specific GPER agonist (G-1) for 16 hours. Panel E: Western blot of luciferase- or c-Myc-transduced WM46 cells treated with G-1 for 16 hours. Panel F: Western blot of WM46 cells treated with G-1 across a time course. Panel G: Western blot of WM46 cells treated with G-1, 100 μM PKA inhibitor Rp-8-Br-cAMPS (PKAi), or both for 1 hour. Panel H: Western blot of WM46 cells treated with G-1, […] proteasome inhibitor (MG132), or both for 1 hour. Panel I: Western blot of WM46 cells treated with 10 μg/ml cyclohexamide (CHX) with and without G-1.
Furthermore, GPER signaling induced a relative growth arrest, associated with hypophosphorylation of Rb in both mouse and human melanoma cells (FIG. 12, Panel D).

[3] = test system: pCREB and c-Myc in NSCLC line TC-1; test: Western blot of TC-1 cells treated with G-1; type: cell-based; conditions: TC-1, 500 nM, 1 hour

**Q.** With `CC(=O)c1ccc2c(c1)[C@@H]1C=CC[C@@H]1[C@H](c1cc3c(cc1Br)OCO3)N2` (relative stereo) [Compound G-1, rel-1-[4-(6-bromo-1,3-benzodioxol-5-yl)-3aR,4S,5,9bS-tetrahydro-3H-cyclopenta[c]quinolin-8-yl]-ethanone] as the compound, how does the c-Myc [1] read?
**A.** reduced

**Q.** What about the pRB [1] of the same compound?
**A.** reduced

**Q.** What about the “response of cells engineered to maintain c-Myc protein” value [2] of the same compound?
**A.** resistant

**Q.** What about the “pCREB and c-Myc signaling effects” value [3] of the same compound?
**A.** the same signaling effects also occur
